Reference: US10980765B2, “Isothiocyanatostilbenes as a novel method and product for treating cancer” (BOARD OF SUPERVISORS OF LOUISIANA STATE UNIVERSITY AND …, priority 2015, dated 2021)

How the values were obtained:
[1] = system: DU145 spheroids; assay: 3D spheroid proliferation; assay type: cell-based; settings: 33 ng/mL HGF, Matrigel, 72 hours
Procedure: Data are shown as the percent change in growth from T=0 to T=72 hours. For each of the six independent variables in each bar graph, a representative image at the 72 hour time point is shown. The six corresponding images below each respective bar graph
3D spheroid proliferation: Prior to seeding, cells were incubated with 2.5 ng/μl CellTracker Red (Life Technologies) in complete DMEM lacking Phenol Red for 5 minutes at room temperature then centrifuged at 1000 RPM for 5 minutes. […] The mixture of cells, treatments, and Matrigel in complete media was seeded at 2000 cells/well in a 96 well plate. The plate was centrifuged at 1000 RPM for 3 minutes to collect the cells into the bottom of the plate. Spheroid growth was imaged for up to 80 hours and analyzed for average red object area using the IncuCyte™ ZOOM software. Data are shown as percent change in spheroid growth between TO and […] with HGF normalized to 100% change in growth. Images were captured by the IncuCyte™ ZOOM imaging system and representative 10× images are shown.

[2] = system: MDA-MB-231/GFP human breast cancer cells; assay: Xenograft study, orthotopic breast tumor growth; assay type: in vivo, Athymic nude mice; settings: 5 mg/kg then 10 mg/kg i.p.
Excerpt: (§1) Data are shown as average+S.E.M., *p<0.05.
(§2) Xenograft studies: All animal experiments were approved by the Institutional Animal Care and Use Committee, University of Louisiana at Monroe, and were handled in strict accordance with good animal practice as defined by the NIH guidelines. Athymic nude mice (Foxn1^nu/Foxn1^+, 4-5 weeks, female) were purchased from Harlan (Indianapolis, Ind.). The mice had free access to standard pellet food and water. The animals were acclimated to animal house facility conditions at a temperature of 18-25° C., with a relative humidity of 55 to 65% and a 12 h light/dark cycle, for one week prior to the experiments. MDA-MB-231/GFP human breast cancer cells were cultured and resuspended in serum-free DMEM medium (20 μl). After anesthesia, cell suspensions (1×10^6 cells/20 μl) were inoculated subcutaneously into the second mammary gland fat pad just beneath the nipple of each animal to generate orthotopic breast tumors. […] The mice were monitored by measuring tumor volume, body weight, and clinical observation. Tumor volume (V) was calculated by V=L/2×W^2, where L was the length and W was the width of tumors. The results are presented as average ±S.E.M. Differences among various treatment groups were determined by the analysis of variance (ANOVA) followed by Dunnett's test using PASW statistics version 18. […]

[3] = Xenograft study, tolerability (body weight, clinical observation); assay type: in vivo, Athymic nude mice
Excerpt: as §1, §2

[4] = target: T1, EGFR (Homo sapiens, UniProt P00533); assay: Western blot of EGFR activation by EGF in DU145 cells; assay type: cell-based; settings: 4 μM DIDS or 25 μM H2DIDS; DU145, 100 ng/ml EGF 20 min
T1 construct: endogenous in cells; host or cells: DU145
T1 sequence (P00533 25-1210): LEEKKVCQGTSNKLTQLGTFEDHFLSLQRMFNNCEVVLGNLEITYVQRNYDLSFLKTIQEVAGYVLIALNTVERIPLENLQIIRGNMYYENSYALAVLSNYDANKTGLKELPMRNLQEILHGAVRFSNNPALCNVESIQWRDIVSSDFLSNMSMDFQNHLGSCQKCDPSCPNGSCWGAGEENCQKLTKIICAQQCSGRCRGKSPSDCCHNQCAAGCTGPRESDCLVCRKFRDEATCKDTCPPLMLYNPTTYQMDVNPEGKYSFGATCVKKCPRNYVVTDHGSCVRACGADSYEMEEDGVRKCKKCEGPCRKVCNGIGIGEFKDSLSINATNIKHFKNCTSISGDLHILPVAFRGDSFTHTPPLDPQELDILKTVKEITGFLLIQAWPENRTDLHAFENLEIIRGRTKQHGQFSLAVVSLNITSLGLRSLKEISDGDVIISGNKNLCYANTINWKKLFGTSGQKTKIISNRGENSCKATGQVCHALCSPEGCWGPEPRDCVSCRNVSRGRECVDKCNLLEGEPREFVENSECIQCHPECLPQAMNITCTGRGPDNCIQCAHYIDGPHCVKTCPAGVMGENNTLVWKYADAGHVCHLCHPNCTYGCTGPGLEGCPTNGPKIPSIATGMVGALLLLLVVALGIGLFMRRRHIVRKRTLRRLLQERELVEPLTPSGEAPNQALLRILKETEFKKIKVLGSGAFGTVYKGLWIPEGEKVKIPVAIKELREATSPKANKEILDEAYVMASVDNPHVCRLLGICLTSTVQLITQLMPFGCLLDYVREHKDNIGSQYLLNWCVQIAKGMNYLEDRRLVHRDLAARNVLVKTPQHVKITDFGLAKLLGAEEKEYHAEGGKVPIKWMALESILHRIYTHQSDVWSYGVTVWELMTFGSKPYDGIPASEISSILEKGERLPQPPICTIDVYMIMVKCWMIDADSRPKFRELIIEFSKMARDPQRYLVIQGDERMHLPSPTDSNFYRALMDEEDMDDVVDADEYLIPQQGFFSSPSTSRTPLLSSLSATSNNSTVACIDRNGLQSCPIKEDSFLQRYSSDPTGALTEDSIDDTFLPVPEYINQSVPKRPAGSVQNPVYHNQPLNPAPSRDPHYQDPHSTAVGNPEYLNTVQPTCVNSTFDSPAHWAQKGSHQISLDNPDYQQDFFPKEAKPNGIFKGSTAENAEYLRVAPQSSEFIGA
Procedure: (§3) Western blot analysis: Cells were grown to ˜70% confluency prior to treatment. Cells were serum-starved in serum-free media for 30 minutes prior to treatment in complete media or serum-free media for the indicated times. Cell lysates were collected in Laemmli (125 mM Tris, 4% SDS, 0.01% bromophenol blue, 30% sucrose) containing 0.5% β-mercaptoethanol and boiled ˜8 minutes. Primary antibodies include: phospho-c-Met (Y1234/1235), phospho-Akt (S473), pEGFR […], pIGF-IRβ (Y1135/1136) (Cell Signaling Technology; Beverly, Mass.); α-actin (Sigma-Aldrich), c-Met (C-28) (Life Technologies). Secondary antibodies include: horseradish peroxidase-conjugated anti-rabbit and anti-mouse (GE Healthcare; Pittsburgh, Pa.). ECL 2 was used for chemiluminescent detection (Thermo Scientific; Rockford, Ill.). Densitometry was calculated using ImageJ (NIH).

[5] = target: c-Met (Homo sapiens, UniProt P08581); assay: Western blot of c-Met activation (phospho-c-Met) by HGF in cancer cell lines; assay type: cell-based; parameters: endogenous in cells; host or cells: DU145, PC3, MDA-MB-231, HCC1806
Chain of c-Met (P08581 25-1390): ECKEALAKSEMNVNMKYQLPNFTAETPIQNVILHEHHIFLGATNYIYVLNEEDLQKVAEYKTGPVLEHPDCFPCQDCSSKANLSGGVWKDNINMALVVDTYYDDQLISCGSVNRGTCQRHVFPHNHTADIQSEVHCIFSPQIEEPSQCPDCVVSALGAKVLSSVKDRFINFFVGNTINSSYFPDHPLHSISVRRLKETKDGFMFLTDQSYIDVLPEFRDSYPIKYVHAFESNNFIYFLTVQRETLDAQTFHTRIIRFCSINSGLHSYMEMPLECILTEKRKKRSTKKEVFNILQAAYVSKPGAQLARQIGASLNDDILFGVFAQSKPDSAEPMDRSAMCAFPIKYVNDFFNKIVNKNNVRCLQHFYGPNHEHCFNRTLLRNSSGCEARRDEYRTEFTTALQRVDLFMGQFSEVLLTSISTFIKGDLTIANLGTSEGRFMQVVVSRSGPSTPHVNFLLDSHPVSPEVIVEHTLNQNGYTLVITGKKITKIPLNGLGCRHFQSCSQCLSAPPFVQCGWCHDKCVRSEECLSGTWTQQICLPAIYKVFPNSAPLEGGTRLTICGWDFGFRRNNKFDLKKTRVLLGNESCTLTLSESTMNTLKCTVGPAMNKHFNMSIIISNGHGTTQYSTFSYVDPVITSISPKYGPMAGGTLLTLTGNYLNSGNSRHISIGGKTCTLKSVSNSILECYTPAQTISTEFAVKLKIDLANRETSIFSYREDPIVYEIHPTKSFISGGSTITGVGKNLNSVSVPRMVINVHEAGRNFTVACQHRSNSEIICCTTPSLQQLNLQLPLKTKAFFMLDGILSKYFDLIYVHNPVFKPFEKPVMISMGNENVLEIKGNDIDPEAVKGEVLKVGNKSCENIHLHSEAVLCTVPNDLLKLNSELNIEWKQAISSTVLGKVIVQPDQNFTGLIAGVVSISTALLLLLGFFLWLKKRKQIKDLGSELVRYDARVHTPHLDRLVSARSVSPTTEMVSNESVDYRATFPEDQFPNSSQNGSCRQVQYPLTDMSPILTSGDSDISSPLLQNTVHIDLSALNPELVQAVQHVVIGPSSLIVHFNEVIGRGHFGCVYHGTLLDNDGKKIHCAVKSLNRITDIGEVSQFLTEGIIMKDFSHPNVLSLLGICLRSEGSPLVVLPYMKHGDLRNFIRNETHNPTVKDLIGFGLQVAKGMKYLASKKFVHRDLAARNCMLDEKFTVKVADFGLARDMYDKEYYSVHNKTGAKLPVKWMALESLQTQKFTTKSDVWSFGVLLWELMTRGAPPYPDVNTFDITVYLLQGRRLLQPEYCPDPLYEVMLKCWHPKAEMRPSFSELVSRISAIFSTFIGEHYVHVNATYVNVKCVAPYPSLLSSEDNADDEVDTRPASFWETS
Procedure: Western blot was used to analyze pMet expression. […] Western blot was used to analyze the indicated proteins.
(§4) Western blot was used to analyze the indicated proteins.
as §4, §3

## O=S(=O)(O)c1cc(N=C=S)ccc1C=Cc1ccc(N=C=S)cc1S(=O)(=O)O [DIDS, 4,4′-Diisothiocyanatostilbene-2,2′-disulfonic acid]
[1]
  lowest concentration with some inhibitory effects on HGF-induced spheroid growth: 40 nM
[1]; 5 μM compound
  decrease of HGF-induced DU145 spheroid growth: ~60%
[2]; 3×/week
  tumor size (caliper): began to reduce tumor size towards the end of the experiment
[2]; end of experiment, *p<0.05
  overall tumor weight at necropsy: Differences in overall tumor weight were evident
[3]; 5 mg/kg intraperitoneally, ˜2 weeks, mice
  signs of toxicity: No obvious signs of toxicity
[3]; 5 mg/kg then 10 mg/kg i.p., 3×/week
  body weight compared to DMSO control: no change in body weight
[4]
  EGFR activation: do not significantly reduce
[5]; 8 μM compound, DU145 cells, 33 ng/ml HGF 20 min, serum-free, Western blot densitometry
  reduction of c-Met activation: ~90%
[5]; DU145, 33 ng/ml HGF 20 min, wash, then 4 μM DIDS 20 or 60 minutes
  pMet levels, compound given post HGF treatment: reduced pMet levels
[5]; DU145, 4 μM DIDS 20 min, one wash, recovery from 20 minutes up to 1 hour, then 33 ng/ml HGF
  reversibility of c-Met inhibition after wash: does not irreversibly bind c-Met
[5]; DU145 cells, 33 ng/ml HGF 20 min, 10% FBS RPMI, compared with serum-free
  effective concentrations for reducing c-Met activation in 10% FBS: slightly higher effective concentrations
[5]; multiple cancer cell lines (summary)
  c-Met inhibitory effective doses: low micromolar range
